Source: publication PMC12669040, “Tumour-specific STING agonist synthesis via a two-component prodrug system” (Nature Chemistry, 2025)
Where “and” joins values, the source holds several entries; their conditions need not be identical. Equal entries are not always repeated.

Key:
[1] = Colorimetric alkylation rate constant assay with TNB^2− as non-specific thiol; assay type: physicochemical; design: second-order: unit not given here; details: for remaining [B]: in µM
[2] = Colorimetric alkylation rate constant assay with thiol N1; assay type: physicochemical; details: for remaining [A]: N1 from calibration curve (N1 in uM); for remaining [A] / remaining [B]: in µM
[3] = Time 2891 sec, [B]0 = 250, Replicates 1-3
[4] = Time 3071 sec, [B]0 = 250, Replicates 1-3
[5] = Time 3252 sec, [B]0 = 250, Replicates 1-3
[6] = Time 3433 sec, [B]0 = 250, Replicates 1-3
[7] = Time 3613 sec, [B]0 = 250, Replicates 1-3

O=C(CCl)Nc1ccccc1 [Compound C2]
remaining [B] ([1]; Replicate 1, 723 sec, [B]0 = 250): 243.908 | remaining [B] ([1]; Replicate 1, 903 sec, [B]0 = 250): 243.568 | remaining [B] ([1]; Replicate 1, 1084 sec, [B]0 = 250): 243.228 | remaining [B] ([1]; Replicate 1, 1265 sec, [B]0 = 250): 242.9 | remaining [B] ([1]; Replicate 1, 1445 sec, [B]0 = 250): 242.598 | remaining [B] ([1]; Replicate 1, 1626 sec, [B]0 = 250): 242.232 | remaining [B] ([1]; Replicate 1, 1806 sec, [B]0 = 250): 241.905 | remaining [B] ([1]; Replicate 1, 1988 sec, [B]0 = 250): 241.539 | remaining [B] ([1]; Replicate 1, 2168 sec, [B]0 = 250): 241.224 | remaining [B] ([1]; Replicate 1, 2349 sec, [B]0 = 250): 240.884 | remaining [B] ([1]; Replicate 1, 2530 sec, [B]0 = 250): 240.607 | remaining [B] ([1]; Replicate 1, 2710 sec, [B]0 = 250): 240.229 | remaining [B] ([1]; Replicate 2, 542 sec, [B]0=250): 245.363 | remaining [B] ([1]; Replicate 2, 723 sec, [B]0=250): 245.048 | remaining [B] ([1]; Replicate 2, 903 sec, [B]0=250): 244.733 | remaining [B] ([1]; Replicate 2, 1084 sec, [B]0=250): 244.393 | remaining [B] ([1]; Replicate 2, 1265 sec, [B]0=250): 244.09 | remaining [B] ([1]; Replicate 2, 1445 sec, [B]0=250): 243.737 | remaining [B] ([1]; Replicate 2, 1626 sec, [B]0=250): 243.435 | remaining [B] ([1]; Replicate 2, 1806 sec, [B]0=250): 243.107 | remaining [B] ([1]; Replicate 2, 1988 sec, [B]0=250): 242.78 | remaining [B] ([1]; Replicate 2, 2168 sec, [B]0=250): 242.452 | remaining [B] ([1]; Replicate 2, 2349 sec, [B]0=250): 242.137 | remaining [B] ([1]; Replicate 2, 2530 sec, [B]0=250): 241.772 | remaining [B] ([1]; Replicate 2, 2710 sec, [B]0=250): 241.469 | remaining [B] ([1]; Replicate 3, 723 sec, [B]0=250): 245.156 | remaining [B] ([1]; Replicate 3, 903 sec, [B]0=250): 244.866 | remaining [B] ([1]; Replicate 3, 1084 sec, [B]0=250): 244.475 | remaining [B] ([1]; Replicate 3, 1265 sec, [B]0=250): 244.311 | remaining [B] ([1]; Replicate 3, 1445 sec, [B]0=250): 243.732 | remaining [B] ([1]; Replicate 3, 1626 sec, [B]0=250): 243.593 | remaining [B] ([1]; Replicate 3, 1806 sec, [B]0=250): 243.165 | remaining [B] ([1]; Replicate 3, 1988 sec, [B]0=250): 242.824 | remaining [B] ([1]; Replicate 3, 2168 sec, [B]0=250): 242.61 | remaining [B] ([1]; Replicate 3, 2349 sec, [B]0=250): 242.232 | remaining [B] ([1]; Replicate 3, 2530 sec, [B]0=250): 241.917 | remaining [B] ([1]; Replicate 3, 2710 sec, [B]0=250): 241.653 | second-order [1, 3]: 0.0003773 and 0.0003667 and 0.0004313 | remaining [B] [1, 3]: 241.388 and 239.977 and 241.154 | second-order [1, 4]: 0.0003928 and 0.0003885 and 0.000446 | remaining [B] [1, 4]: 240.909 and 239.662 and 240.814 | second-order [1, 5]: 0.0004061 and 0.0003977 and 0.0004618 | remaining [B] [1, 5]: 240.708 and 239.321 and 240.524 | second-order [1, 6]: 0.0004218 and 0.000411 and 0.0004772 | remaining [B] [1, 6]: 240.418 and 238.994 and 240.184 | second-order [1, 7]: 0.0004369 and 0.0004267 and 0.0004915 | remaining [B] [1, 7]: 240.077 | second-order ([1]; Time 3794 sec, [B]0 = 250, Replicates 1-3): 0.0004533 and 0.0004448 and 0.000507 | second-order ([1]; Time 3974 sec, [B]0 = 250, Replicates 1-3): 0.0004675 and 0.0004536 and 0.0005214 | second-order ([1]; Time 4155 sec, [B]0 = 250, Replicates 1-3): 0.0004823 and 0.0004725 and 0.0005334 | second-order ([1]; Time 4336 sec, [B]0 = 250, Replicates 1-3): 0.0004965 and 0.0004915 and 0.0005528 | second-order ([1]; Time 4516 sec, [B]0 = 250, Replicates 1-3): 0.0005127 and 0.0005034 and 0.0005668 | second-order ([1]; Time 4697 sec, [B]0 = 250, Replicates 1-3): 0.0005253 and 0.000516 and 0.0005808 | second-order ([1]; Time 4878 sec, [B]0 = 250, Replicates 1-3): 0.000541 and 0.0005322 and 0.0005962 | second-order ([1]; Time 5058 sec, [B]0 = 250, Replicates 1-3): 0.0005592 and 0.0005485 and 0.0006085 | second-order ([1]; Time 5239 sec, [B]0 = 250, Replicates 1-3): 0.0005708 and 0.0005619 and 0.0006247 | second-order ([1]; Time 5419 sec, [B]0 = 250, Replicates 1-3): 0.0005891 and 0.0005723 and 0.0006371 | second-order ([1]; Time 5600 sec, [B]0 = 250, Replicates 1-3): 0.0006027 and 0.0005925 and 0.000654 | second-order ([1]; Time 5781 sec, [B]0 = 250, Replicates 1-3): 0.0006182 and 0.000611 and 0.0006672 | second-order ([1]; Time 5961 sec, [B]0 = 250, Replicates 1-3): 0.0006343 and 0.000624 and 0.0006855 | remaining [A] ([2]; Replicate 1, time 576 sec): 80.4651 | remaining [B] ([2]; Replicate 1, time 576 sec, [B]0 = 250): 226.345 | second-order ([2]; Replicate 1, time 576 sec, second-order plot value): 0.001085 | remaining [A] ([2]; Replicate 1, time 606 sec): 79.6386 | remaining [B] ([2]; Replicate 1, time 606 sec, [B]0 = 250): 225.519 | second-order ([2]; Replicate 1, time 606 sec, second-order plot value): 0.001131 | remaining [A] ([2]; Replicate 2, time 576 sec): 80.4092 | remaining [B] ([2]; Replicate 2, time 576 sec, [B]0=250): 227.268 | second-order ([2]; Replicate 2, time 576 sec, second-order plot value): 0.001046 | remaining [A] ([2]; Replicate 2, time 606 sec): 79.1621 | remaining [B] ([2]; Replicate 2, time 606 sec, [B]0=250): 226.02 | second-order ([2]; Replicate 2, time 606 sec, second-order plot value): 0.001115 | remaining [A] ([2]; Replicate 3, time 576 sec): 81.6859 | remaining [B] ([2]; Replicate 3, time 576 sec, [B]0=250): 227.139 | second-order ([2]; Replicate 3, time 576 sec, second-order plot value): 0.001037 | remaining [A] ([2]; Replicate 3, time 606 sec): 80.8202 | remaining [B] ([2]; Replicate 3, time 606 sec, [B]0=250): 226.273 | second-order ([2]; Replicate 3, time 606 sec, second-order plot value): 0.001084 | remaining [B] ([2]; time 0 sec, [B]0 = 250, replicates 1-3): 247.836 and 246.58 and 246.712 | second-order ([2]; time 0 sec, replicates 1-3): 0.0001305 and 8.4046e-5 and 0.0001345 | remaining [B] ([2]; time 30 sec, [B]0 = 250, replicates 1-3): 246.591 and 244.557 and 245.38 | second-order ([2]; time 30 sec, replicates 1-3): 0.000185 and 0.0001335 and 0.0002172 | remaining [B] ([2]; time 60 sec, [B]0 = 250, replicates 1-3): 244.968 and 243.73 and 244.048 | second-order ([2]; time 60 sec, replicates 1-3): 0.0002407 and 0.0001994 and 0.0002516 | remaining [B] ([2]; time 91 sec, [B]0 = 250, replicates 1-3): 243.804 and 242.562 and 242.8 | second-order ([2]; time 91 sec, replicates 1-3): 0.0002937 and 0.0002475 and 0.000301 | remaining [B] ([2]; time 121 sec, [B]0 = 250, replicates 1-3): 243.047 and 241.251 and 241.752 | second-order ([2]; time 121 sec, replicates 1-3): 0.0003391 and 0.0002792 and 0.0003575 | remaining [B] ([2]; time 151 sec, [B]0 = 250, replicates 1-3): 242.371 and 240.196 and 240.873 | second-order ([2]; time 151 sec, replicates 1-3): 0.0003777 and 0.0003079 and 0.0004037 | remaining [B] ([2]; time 182 sec, [B]0 = 250, replicates 1-3): 241.478 and 239.142 and 240.023 | second-order ([2]; time 182 sec, replicates 1-3): 0.0004154 and 0.0003461 and 0.0004506 | remaining [B] ([2]; time 212 sec, [B]0 = 250, replicates 1-3): 240.882 and 238.087 and 239.314 | second-order ([2]; time 212 sec, replicates 1-3): 0.0004473 and 0.0003719 and 0.0004982 | remaining [B] ([2]; time 242 sec, [B]0 = 250, replicates 1-3): 239.746 and 237.004 and 238.605 | second-order ([2]; time 242 sec, replicates 1-3): 0.0004795 and 0.0004218 and 0.000548 | remaining [B] ([2]; time 273 sec, [B]0 = 250, replicates 1-3): 238.772 and 235.921 and 237.868 | second-order ([2]; time 273 sec, replicates 1-3): 0.0005133 and 0.0004652 and 0.0005985 | remaining [B] ([2]; time 303 sec, [B]0 = 250, replicates 1-3): 237.095 and 234.981 and 237.103 | second-order ([2]; time 303 sec, replicates 1-3): 0.0005489 and 0.0005414 and 0.0006431 | remaining [B] ([2]; time 333 sec, [B]0 = 250, replicates 1-3): 235.255 and 233.898 and 236.026 | second-order ([2]; time 333 sec, replicates 1-3): 0.0005997 and 0.0006273 and 0.0006953 | remaining [B] ([2]; time 364 sec, [B]0 = 250, replicates 1-3): 234.038 and 233.014 and 234.41 | second-order ([2]; time 364 sec, replicates 1-3): 0.0006774 and 0.0006854 and 0.0007385 | remaining [B] ([2]; time 394 sec, [B]0 = 250, replicates 1-3): 232.874 and 231.988 and 233.73 | second-order ([2]; time 394 sec, replicates 1-3): 0.0007107 and 0.0007421 and 0.0007895 | remaining [B] ([2]; time 424 sec, [B]0 = 250, replicates 1-3): 231.738 and 230.934 and 232.256 | second-order ([2]; time 424 sec, replicates 1-3): 0.0007842 and 0.0007984 and 0.0008427 | remaining [B] ([2]; time 454 sec, [B]0 = 250, replicates 1-3): 230.764 and 230.107 and 231.378 | second-order ([2]; time 454 sec, replicates 1-3): 0.0008288 and 0.0008475 and 0.000885 | remaining [B] ([2]; time 485 sec, [B]0 = 250, replicates 1-3): 229.871 and 229.167 and 230.13 | remaining [B] ([2]; time 515 sec, [B]0 = 250, replicates 1-3): 228.978 and 228.226 and 228.94 | second-order ([2]; time 515 sec, replicates 1-3): 0.0009559 and 0.0009395 and 0.0009836 | remaining [B] ([2]; time 545 sec, [B]0 = 250, replicates 1-3): 227.95 and 227.314 and 227.948 | second-order ([2]; time 545 sec, replicates 1-3): 0.001009 and 0.0009937 and 0.001032
